Assay results reported in PMC12396409, “Screening and hit evaluation of a microbial metabolite library against the pathogenic Plasmodium falciparum and Toxoplasma gondii parasites” (International Journal for Parasitology: Drugs and Drug …, 2025).
Read-outs that look alike come from different tables or passages of the source. Where a SMILES comes first, the peptide text is derived from it. [ ]: non-standard residue; d: D form. GABA = NCCCC(=O)O

How the values were obtained:
[1] = system: P. falciparum 3D7 parasites; assay: P. falciparum growth inhibition assay, 1-cycle (72 h treatment), SYBR DNA staining (library screen at 2 μg/mL and dose-response); assay type: cell-based, Plasmodium falciparum
[2] = system: P. falciparum 3D7 parasites; assay: P. falciparum growth inhibition assay, 2-cycle (120 h treatment), delayed-death screen and dose-response; assay type: cell-based, Plasmodium falciparum
[3] = system: T. gondii RH strain (RH-Tub-eYFP) tachyzoites; assay: microbe, parasite or virus in culture; assay type: cell-based, Toxoplasma gondii
[4] = P. falciparum, 72 h, screen at 2 μg/mL, replicate 1
[5] = P. falciparum, 72 h, screen at 2 μg/mL, replicate 2
[6] = P. falciparum, 120 h, screen at 2 μg/mL, replicate 1
[7] = P. falciparum, 120 h, screen at 2 μg/mL, replicate 2
[8] = T. gondii, 72 h, screen at 2 μg/mL, replicate 1
[9] = T. gondii, 72 h, screen at 2 μg/mL, replicate 2
[10] = library screen at 2 μg/mL, 72 h, % growth, replicate 1
[11] = library screen at 2 μg/mL, 72 h, % growth, replicate 2
[12] = library screen at 2 μg/mL, 120 h, % growth, replicate 1
[13] = library screen at 2 μg/mL, 120 h, % growth, replicate 2
[14] = Toxoplasma gondii, 72 h, T. gondii, 72 h, screen at 2 μg/mL, replicate 1; read-out: Tg_72h_%Growth_Rep1
[15] = Toxoplasma gondii, 72 h, T. gondii, 72 h, screen at 2 μg/mL, replicate 2; read-out: Tg_72h_%Growth_Rep2
[16] = Plasmodium falciparum, 3D7, P. falciparum, 72 h, screen at 2 μg/mL, replicate 1, read-out: Pf_72h_%Growth_Rep1
[17] = Plasmodium falciparum, 3D7, P. falciparum, 72 h, screen at 2 μg/mL, replicate 2, read-out: Pf_72h_%Growth_Rep2
[18] = Plasmodium falciparum, 3D7, P. falciparum, 120 h, screen at 2 μg/mL, replicate 1, read-out: Pf_120h_%Growth_Rep1
[19] = Plasmodium falciparum, 3D7, P. falciparum, 120 h, screen at 2 μg/mL, replicate 2, read-out: Pf_120h_%Growth_Rep2

SMILES: CC(C)C[C@@H]1NC(=O)[C@@H](C(C)C)NC(=O)[C@@H](C)NC(=O)CCCNC(=O)[C@@H](Cc2c[nH]c3ccccc23)NC(=O)[C@@H](C)NC(=O)[C@@H](C(C)C)NC1=O [Unguisin B] (cyclo([GABA][dA][dV]L[dV][dA][dW]))
- Pf_72h_%Growth_Rep1 [1, 4]: 89.12%
- Pf_72h_%Growth_Rep2 [1, 5]: 119.76%
- Pf_120h_%Growth_Rep1 [2, 6]: 112.33%
- Pf_120h_%Growth_Rep2 [2, 7]: 102.07%
- Tg_72h_%Growth_Rep1 [3, 8]: 121.22%
- Tg_72h_%Growth_Rep2 [3, 9]: 81.61%

SMILES: CC(=O)[C@H]1c2c(c(O)c3c(O)cccc3c2-c2c3c(c(O)c4c(O)cccc24)C(=O)C[C@](C)(O)[C@H]3C(C)=O)C(=O)C[C@]1(C)O [A 39183A]
- Pf_72h_%Growth_Rep1 [1, 10]: 2.40%
- Pf_72h_%Growth_Rep2 [1, 11]: 2.28%
- Pf_120h_%Growth_Rep1 [2, 12]: 5.28%
- Pf_120h_%Growth_Rep2 [2, 13]: -2.60%
- Tg_72h_%Growth_Rep1 [3, 10]: 90.59%
- Tg_72h_%Growth_Rep2 [3, 11]: 100.22%

SMILES: CN[C@@H]1C[C@H]2O[C@@](C)([C@@H]1OC)n1c3ccccc3c3c4c(c5c6ccccc6n2c5c31)C(=O)N[C@H]4O [UCN-02]
- Pf_72h_%Growth_Rep1 [1, 4]: 0.18%
- Pf_72h_%Growth_Rep2 [1, 5]: -6.73%
- Pf_120h_%Growth_Rep1 [2, 6]: 30.31%
- Pf_120h_%Growth_Rep2 [2, 7]: 6.39%
- Tg_72h_%Growth_Rep1 [3, 8]: 2.39%
- Tg_72h_%Growth_Rep2 [3, 9]: 1.72%

SMILES: COC1=C(O)c2c(O)cc(C)c3c(O)cc(O)c(c23)C1=O [Funalenone]
- Pf_72h_%Growth_Rep1 [1, 10]: 89.99%
- Pf_72h_%Growth_Rep2 [1, 11]: 108.10%
- Pf_120h_%Growth_Rep1 [2, 12]: 97.73%
- Pf_120h_%Growth_Rep2 [2, 13]: 107.04%
- Tg_72h_%Growth_Rep1 [3, 10]: 131.40%
- Tg_72h_%Growth_Rep2 [3, 11]: 92.93%

SMILES: C/C=C\C=C\[C@@H]1O[C@](O)([C@H](CC)C(=O)NC/C=C/C=C(\C)[C@@H](OC)[C@@H](C)[C@H]2C[C@@H](O)[C@@H](/C=C/C=C/C=C/C(=O)O)O2)[C@H](O)[C@H](O)C1(C)C [A 83016F]
- Pf_72h_%Growth_Rep1 [1, 10]: 83.31%
- Pf_72h_%Growth_Rep2 [1, 11]: 85.46%
- Pf_120h_%Growth_Rep1 [2, 12]: 83.40%
- Pf_120h_%Growth_Rep2 [2, 13]: 76.05%
- Tg_72h_%Growth_Rep1 [3, 10]: 147.54%
- Tg_72h_%Growth_Rep2 [3, 11]: 91.91%

SMILES: COc1ccc(C[C@H](N)C(=O)N[C@H]2[C@@H](O)[C@H](n3cnc4c(N(C)C)ncnc43)O[C@@H]2CO)cc1 [Puromycin]
- activity at 2 µg/mL ([1]; Plasmodium falciparum, 3D7, P. falciparum, 72 h, parasite screen 2 μg/mL, % growth, replicate 1, read-out: Pf_72h_%Growth_Rep1): 1.82%
- activity at 2 µg/mL ([1]; Plasmodium falciparum, 3D7, P. falciparum, 72 h, parasite screen 2 μg/mL, % growth, replicate 2, read-out: Pf_72h_%Growth_Rep2): 1.65%
- activity at 2 µg/mL ([2]; Plasmodium falciparum, 3D7, P. falciparum, 120 h, parasite screen 2 μg/mL, % growth, replicate 1, read-out: Pf_120h_%Growth_Rep1): -0.01%
- activity at 2 µg/mL ([2]; Plasmodium falciparum, 3D7, P. falciparum, 120 h, parasite screen 2 μg/mL, % growth, replicate 2, read-out: Pf_120h_%Growth_Rep2): 7.14%
- percent parasite growth at 2 µg/mL ([3]; Toxoplasma gondii, 72 h, T. gondii, 72 h, parasite screen 2 μg/mL, % growth, replicate 1; read-out: Tg_72h_%Growth_Rep1): -0.59%
- percent parasite growth at 2 µg/mL ([3]; Toxoplasma gondii, 72 h, T. gondii, 72 h, parasite screen 2 μg/mL, % growth, replicate 2; read-out: Tg_72h_%Growth_Rep2): 1.12%

SMILES: COc1cc(-c2cc3c(c(=O)o2)C[C@]2(O)[C@@]4(C)C(=O)C=CC(C)(C)[C@]4(O)CC[C@@]2(C)O3)cc(OC)c1OC [Territrem B]
- activity at 2 µg/mL ([1]; Plasmodium falciparum, 3D7, 72 h, P. falciparum, 72 h, screen at 2 μg/mL, replicate 1, read-out: Pf_72h_%Growth_Rep1): 63.6%
- activity at 2 µg/mL ([1]; Plasmodium falciparum, 3D7, 72 h, P. falciparum, 72 h, screen at 2 μg/mL, replicate 2, read-out: Pf_72h_%Growth_Rep2): 64.7%
- activity at 2 µg/mL ([2]; Plasmodium falciparum, 3D7, 120 h, P. falciparum, 120 h, screen at 2 μg/mL, replicate 1, read-out: Pf_120h_%Growth_Rep1): 148%
- activity at 2 µg/mL ([2]; Plasmodium falciparum, 3D7, 120 h, P. falciparum, 120 h, screen at 2 μg/mL, replicate 2, read-out: Pf_120h_%Growth_Rep2): 68.3%
- percent parasite growth at 2 µg/mL [3, 14]: 89.7%
- percent parasite growth at 2 µg/mL [3, 15]: 98.2%

SMILES: C[C@H]1CCCC(=O)CCC/C=C/c2cc(O)cc(O)c2C(=O)O1 [Zearalenone]
- activity at 2 µg/mL [1, 16]: 89.4%
- activity at 2 µg/mL [1, 17]: 99.7%
- activity at 2 µg/mL [2, 18]: 88.9%
- activity at 2 µg/mL [2, 19]: 64.3%
- percent parasite growth at 2 µg/mL ([3]; Toxoplasma gondii; T. gondii, 72 h, screen at 2 μg/mL, replicate 1; read-out: Tg_72h_%Growth_Rep1): 104%
- percent parasite growth at 2 µg/mL ([3]; Toxoplasma gondii; T. gondii, 72 h, screen at 2 μg/mL, replicate 2; read-out: Tg_72h_%Growth_Rep2): 74%

SMILES: CO[C@H]1/C=C\C=C(/C)C(=O)Nc2cc(O)cc(c2O)[C@H](OC)[C@@H](C)C[C@H](OC)[C@H](O)[C@@H](C)/C=C(\C)[C@@H]1OC(N)=O [TAN 420C]
- Pf_72h_%Growth_Rep1 ([1]; P. falciparum, 72 h, parasite screen 2 μg/mL, % growth, replicate 1): 3.02%
- Pf_72h_%Growth_Rep2 ([1]; P. falciparum, 72 h, parasite screen 2 μg/mL, % growth, replicate 2): -2.54%
- Pf_120h_%Growth_Rep1 ([2]; P. falciparum, 120 h, parasite screen 2 μg/mL, % growth, replicate 1): 31.69%
- Pf_120h_%Growth_Rep2 ([2]; P. falciparum, 120 h, parasite screen 2 μg/mL, % growth, replicate 2): 5.24%
- Tg_72h_%Growth_Rep1 ([3]; T. gondii, 72 h, parasite screen 2 μg/mL, % growth, replicate 1): 82.44%
- Tg_72h_%Growth_Rep2 ([3]; T. gondii, 72 h, parasite screen 2 μg/mL, % growth, replicate 2): 97.92%

SMILES: COc1cc(O)c2c(c1C)C(C)C(O)(CO)OC2=O (centres unmarked) [Banksialactone A]
- Pf_72h_%Growth_Rep1 [1, 10]: 70.20%
- Pf_72h_%Growth_Rep2 [1, 11]: 86.53%
- Pf_120h_%Growth_Rep1 [2, 12]: 148.50%
- Pf_120h_%Growth_Rep2 [2, 13]: 82.39%
- Tg_72h_%Growth_Rep1 [3, 10]: 101.56%
- Tg_72h_%Growth_Rep2 [3, 11]: 97.07%

SMILES: C=C[C@]1(C)C[C@@H](OC(=O)CSCCN(CC)CC)[C@]2(C)[C@H](C)CC[C@]3(CCC(=O)[C@H]32)[C@@H](C)[C@@H]1O [Tiamulin, reference compound]
- activity at 2 µg/mL ([1]; Plasmodium falciparum, 3D7; P. falciparum, 2 μg/mL, 72 h; read-out: 1) Growth (%) at 72 h): 55%
- activity at 2 µg/mL [1, 16]: 61.3%
- activity at 2 µg/mL [1, 17]: 48.7%
- IC50 ([1]; Plasmodium falciparum, 3D7, 72 h treatment, mean ± S.D., n ≥ 3, read-out: IC50 (μM), P. falciparum): > 1 µM
- delayed-death activity in the 120 h screen against P. falciparum ([2]; 2 μg/mL, criteria: ≥40 % growth at 72 h, ≤20 % growth at 120 h, at least 5-fold): delayed-death activity
- 3) Fold change (72 h/120 h) ([2]; P. falciparum, growth at 72 h / growth at 120 h, 2 μg/mL): 7.0
- IC50 ([2]; Plasmodium falciparum, 3D7, read-out: IC50, P. falciparum, 120 h dose-response (delayed-death)): ~1000 nM
- activity at 2 µg/mL ([2]; Plasmodium falciparum, 3D7; P. falciparum, 2 μg/mL, 120 h; read-out: 2) Growth (%) at 120 h): 7.81%
- activity at 2 µg/mL [2, 18]: 6.75%
- activity at 2 µg/mL [2, 19]: 8.86%
- percent parasite growth at 2 µg/mL [3, 14]: 55.8%
- percent parasite growth at 2 µg/mL [3, 15]: 29.4%
- IC50 ([3]; Toxoplasma gondii; RH strain, 72 h, mean ± S.D., n ≥ 3; read-out: IC50 (μM), T. gondii (converted)): > 1 µM
- Screen (T. gondii) ([3]; library screen at 2 μg/mL, RH strain, 72 h): I

SMILES: COc1cc(=O)oc(/C=C/C=C/C=C/C(C)=C/[C@@]2(C)O[C@H](C)[C@](C)(O)[C@H]2O)c1C [Citreoviridin]
- Pf_72h_%Growth_Rep1 [1, 4]: 92.20%
- Pf_72h_%Growth_Rep2 [1, 5]: 86.47%
- Pf_120h_%Growth_Rep1 [2, 6]: 141.81%
- Pf_120h_%Growth_Rep2 [2, 7]: 93.96%
- Tg_72h_%Growth_Rep1 [3, 8]: 86.37%
- Tg_72h_%Growth_Rep2 [3, 9]: 89.97%

SMILES: CC[C@H]1OC(=O)[C@H](C)[C@@H](O[C@H]2C[C@@](C)(OC)[C@@H](O)[C@H](C)O2)[C@H](C)[C@@H](O[C@@H]2O[C@H](C)C[C@H](NC)[C@H]2O)[C@](C)(O)C[C@@H](C)C(=O)[C@H](C)[C@@H](O)[C@]1(C)O [Demethylerythromycin A, N-]
- Pf_72h_%Growth_Rep1 [1, 4]: 87.44%
- Pf_72h_%Growth_Rep2 [1, 5]: 93.22%
- Pf_120h_%Growth_Rep1 [2, 6]: 108.40%
- Pf_120h_%Growth_Rep2 [2, 7]: 97.63%
- Tg_72h_%Growth_Rep1 [3, 8]: 111.33%
- Tg_72h_%Growth_Rep2 [3, 9]: 103.06%

SMILES: CC1=CC[C@H]2C(C)(C)CCC[C@]2(C)[C@H]1CO [Drimenol]
- Pf_72h_%Growth_Rep1 [1, 10]: 88.25%
- Pf_72h_%Growth_Rep2 [1, 11]: 89.37%
- Pf_120h_%Growth_Rep1 [2, 12]: 92.79%
- Pf_120h_%Growth_Rep2 [2, 13]: 93.83%
- Tg_72h_%Growth_Rep1 [3, 10]: 153.93%
- Tg_72h_%Growth_Rep2 [3, 11]: 98.02%
